In US20250186452A1, “NOVEL USE OF QUINOLINE COMPOUND” (TARAPEUTICS SCIENCE INC., priority 2022, published 2025):
Where two headings read alike, the source gives them in different places.

Key:
[1] = target: T1, TEL-CSF1R-BaF3 (Homo sapiens, UniProt P07333); experiment: Proliferation of TEL-CSF1R-BaF3 cells (CCK-8, 72 hours); assay type: cell-based; conditions: for GI50: 72 hours incubation, CCK-8
T1 construct: expressed in transfected cells; host or cells: mouse BaF3 cells (ATCC), retroviral transduction with MSCV-Puro vector, IL-3 withdrawn; the other entry of the earlier key: ETV6 (P41212, Transcription factor ETV6)
T1 sequence (P07333 582-910 limits assumed): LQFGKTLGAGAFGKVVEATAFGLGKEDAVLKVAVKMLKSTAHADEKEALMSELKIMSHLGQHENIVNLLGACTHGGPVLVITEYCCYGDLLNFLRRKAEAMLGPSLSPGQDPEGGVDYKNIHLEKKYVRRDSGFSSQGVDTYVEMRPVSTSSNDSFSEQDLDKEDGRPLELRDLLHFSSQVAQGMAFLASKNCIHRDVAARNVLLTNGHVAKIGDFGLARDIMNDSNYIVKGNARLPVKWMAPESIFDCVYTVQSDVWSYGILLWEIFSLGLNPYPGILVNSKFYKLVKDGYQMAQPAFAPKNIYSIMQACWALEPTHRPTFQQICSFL
Method: (§1) The incubated cells were detected by CCK-8 (purchased from MedChem Express, China) cell viability detection kit (CCK-8 can be reduced by dehydrogenases in living cells to a highly water-soluble yellow formazan product, and the amount of the generated formazan product is proportional to the number of living cells). The number of living cells was quantified by a microplate reader, and the GI50 for each compound was calculated (the results are shown in Table 2).
The construction method of the TEL-CSF1R-BaF3 cell line (a cell line stably expressing CSF1R kinase) was as follows: the sequence of human CSF1R kinase region was amplified by PCR and inserted into the MSCV-Puro vector (Clontech) with an N-terminal TEL fragment, and stably transferred into mouse BaF3 cells (purchased from ATCC, USA) by a retroviral method, and IL-3 growth factor was removed, finally a cell line dependent on CSF1R transferred protein was obtained.

[2] = test system: M-NSF-60; experiment: Proliferation of M-NSF-60 cells with M-CSF (CCK-8, 72 hours); assay type: cell-based, mouse; conditions: for GI50: Mus musculus, read-out: M-NSF-60 (GI50/μM)
Method: as §1

[3] = M-CSF 50 ng/ml in medium, 72 hours incubation, CCK-8
[4] = result in words, summary of Table 2

| GI50 [1] [µM] | inhibitory effect on the proliferation of TEL-CSF1R-BaF3 [1, 4] | Compound | GI50 ([2]; 72 h) [µM] | GI50 [2, 3] [µM] | inhibitory effect on the proliferation of M-NSF-60 [2, 4] |
| --- | --- | --- | --- | --- | --- |
| 0.001 | – | COc1cc2nccc(Oc3ccc(NC(=O)Cc4ccc(C)c(C)c4)cc3)c2cc1OC [Example 11, N-(4-((6.7-dimethoxyquinolin-4-yl)oxy)phenyl)2-(3,4-dimethylphenyl)acetamide] | – | 0.005 | – |
| 0.003 | – | COc1cc2nccc(Oc3ccc(NC(=O)Cc4ccc(F)c(F)c4)cc3)c2cc1OC [Example 12, N-(4-((6,7-dimethoxyquinolin-4-yl)oxy)phenyl)-2-(3,4-difluorophenyl)acetamide] | – | 0.065 | – |
| 0.002 | – | COc1cc2nccc(Oc3ccc(NC(=O)Cc4ccc(F)c(C(F)(F)F)c4)cc3)c2cc1OC [Example 13, N-(4-((6,7-dimethoxyquinolin-4-yl)oxy)phenyl)-2-(4-fluoro-3-(trifluoromethyl)phenyl)acetamide] | – | 0.018 | – |
| 0.012 | – | COc1cc2nccc(Oc3ccc(NC(=O)Cc4c(F)cccc4F)cc3)c2cc1OC [Example 14, N-(4-((6,7-dimethoxyquinolin-4-yl)oxy)phenyl)-2-(2,6-difluorophenyl)acetamide] | – | 0.26 | – |
| 0.003 | – | COc1cc2nccc(Oc3ccc(NC(=O)Cc4ccc(F)cc4F)cc3)c2cc1OC [Example 15, N-(4-((6,7-dimethoxyquinolin-4-yl)oxy)phenyl)-2-(2,4-difluorophenyl)acetamide] | – | 0.051 | – |
| 0.001 | – | COc1cc2nccc(Oc3ccc(NC(=O)Cc4ccc(C)c(F)c4)cc3)c2cc1OC [Example 16, N-(4-((6,7-dimethoxyquinolin-4-yl)oxy)phenyl)-2-(3-fluoro-4-methylphenyl)acetamide] | – | 0.033 | – |
| 0.002 | – | COc1cc2nccc(Oc3ccc(NC(=O)Cc4ccc(Cl)c(Cl)c4)cc3)c2cc1OC [Example 17, N-(4-((6,7-dimethoxyquinolin-4-yl)oxy)phenyl)-2-(3,4-dichlorophenyl)acetamide] | – | 0.042 | – |
| 0.002 | – | COc1cc2nccc(Oc3ccc(NC(=O)Cc4ccc5c(c4)OCO5)cc3)c2cc1OC [Example 18, N-(4-((6,7-dimethoxyquinolin-4-yl)oxy)phenyl)-2-(benzo[d][1,3]dioxol-5-yl)acetamide] | – | 0.062 | – |
| 0.0008 | – | COc1cc2nccc(Oc3ccc(NC(=O)Cc4ccc5ccccc5c4)cc3)c2cc1OC [Example 19, N-(4-((6,7-dimethoxyquinolin-4-yl)oxy)phenyl)-2-(naphth-2-yl)acetamide] | – | 0.074 | – |
| 0.006 | – | COc1cc2nccc(Oc3ccc(NC(=O)Cc4cccc(F)c4)cc3)c2cc1OC [Example 20, N-(4-((6,7-dimethoxyquinolin-4-yl)oxy)phenyl)-2-(3-fluorophenyl)acetamide] | – | 0.13 | – |
| 0.008 | – | COc1cc2nccc(Oc3ccc(NC(=O)Cc4ccc(Cl)c(C(F)(F)F)c4)c(Cl)c3)c2cc1OC [Example 23, N-(2-chloro-4-((6,7-dimethoxyquinolin-4-yl)oxy)phenyl)-2-(4-chloro-3-(trifluoromethyl)phenyl)acetamide] | – | 0.061 | – |
| 0.002 | – | COc1cc2nccc(Oc3ccc(NC(=O)Cc4ccc(Cl)c(C(F)(F)F)c4)c(F)c3)c2cc1OC [Example 24, N-(2-fluoro-4-((6,7-dimethoxyquinolin-4-yl)oxy)phenyl)-2-(4-chloro-3-(trifluoromethyl)phenyl)acetamide] | – | 0.024 | – |
| 0.003 | – | COc1cc2nccc(Oc3ccc(NC(=O)Cc4ccc(Cl)c(C(F)(F)F)c4)cc3F)c2cc1OC [Example 25, N-(3-fluoro-4-((6,7-dimethoxyquinolin-4-yl)oxy)phenyl)-2-(4-chloro-3-(trifluoromethyl)phenyl)acetamide] | – | 0.05 | – |
| 0.006 | – | COc1cc2nccc(Oc3ccc(NC(=O)Cc4ccc(Cl)c(C(F)(F)F)c4)c(C)c3)c2cc1OC [Example 26, N-(2-methyl-4-((6,7-dimethoxyquinolin-4-yl)oxy)phenyl)-2-(4-chloro-3-(trifluoromethyl)phenyl)acetamide] | – | 0.06 | – |
| 0.003 | – | COc1cc2nccc(Oc3ccc(NC(=O)Cc4ccc(Cl)c(C(F)(F)F)c4)cc3C)c2cc1OC [Example 27, N-(3-methyl-4-((6,7-dimethoxyquinolin-4-yl)oxy)phenyl)-2-(4-chloro-3-(trifluoromethyl)phenyl)acetamide] | – | 0.041 | – |
| 0.012 | – | COc1cc2nccc(Oc3ccc(NC(=O)NCCCN4CCOCC4)cc3)c2cc1OC [Example 28, 1-(4-((6,7-dimethoxyquinolin-4-yl)oxy)phenyl)-3-(3-morpholinopropyl)urea] | – | – | – |
| 0.011 | – | COc1cc2nccc(Oc3ccc(NC(=O)NCCCN4CCN(C)CC4)cc3)c2cc1OC [Example 29, 1-(4-((6,7-dimethoxyquinolin-4-yl)oxy)phenyl)-3-(3-(4-methylpiperazin-1-yl)propyl)urea] | – | – | – |
| 0.004 | – | COc1cc2nccc(Oc3ccc(NC(=O)Cc4ccc(Cl)c(C(F)(F)F)c4)cc3OC)c2cc1OC [Example 37, N-(3-methoxy-4-((6,7-dimethoxyquinolin-4-yl)oxy)phenyl)-2-(4-chloro-3-(trifluoromethyl)phenyl)acetamide] | – | 0.075 | – |

The remaining lines, values behind:

| Compound | GI50 [1] [µM] | inhibitory effect on the proliferation of TEL-CSF1R-BaF3 [1, 4] | GI50 ([2]; 72 h) [µM] | GI50 [2, 3] [µM] | inhibitory effect on the proliferation of M-NSF-60 [2, 4] |
| --- | --- | --- | --- | --- | --- |
| COc1cc2nccc(Oc3ccc(NC(=O)Cc4ccccc4)cn3)c2cc1OC [Comparative Example 1, N-(6-((6,7-dimethoxyquinolin-4-yl)oxy)pyridin-3-yl)-2-phenylacetamide, reference compound] | > 10 | – | > 10 | – | – |
| COc1cc2nccc(Oc3ncc(NC(=O)Cc4cccc(C(F)(F)F)c4)cc3Cl)c2cc1OC [Comparative Example 2, N-(5-chloro-6-((6,7-dimethoxyquinolin-4-yl)oxy)pyridin-3-yl)-2-(3-(trifluoromethyl)phenyl)acetamide, reference compound] | 2.54 | – | – | 7.84 | – |
| COc1cc2nccc(Oc3ccc(C(=O)NCc4cccc(C(F)(F)F)c4)cc3)c2cc1OC [Comparative Example 3, N-(3-(trifluoromethyl)benzyl)-4-((6,7-dimethoxyquinolin-4-yl)oxy)benzamide, reference compound] | 1.23 | – | – | 2.4 | – |
| COc1cccc(CC(=O)Nc2ccc(Oc3ncnc4cc(OC)c(OC)cc34)cc2)c1 [Comparative Example 4, N-(4-((6,7-dimethoxyquinazolin-4-yl)oxy)phenyl)-2-(3-methoxyphenyl)acetamide, reference compound] | 0.17 | certain inhibitory activity | – | 0.55 | certain inhibitory activity |
| COc1cc2nccc(Oc3ccc(NC(=O)Cc4ccc(C)c(C(F)(F)F)c4)cc3)c2cc1OC [Example 1, N-(4-((6,7-dimethoxyquinolin-4-yl)oxy)phenyl)-2-(4-methyl-3-(trifluoromethyl)phenyl)acetamide] | 0.002 | – | 0.009 | – | – |
| COc1cc2nccc(Oc3ccc(NC(=O)Cc4ccccc4)cc3)c2cc1OC [Example 3, N-(4-((6,7-dimethoxyquinolin-4-yl)oxy)phenyl)-2-phenylacetamide] | 0.012 | – | – | 0.1 | – |
| COc1cc2nccc(Oc3ccc(NC(=O)Cc4ccc(Cl)c(F)c4)cc3)c2cc1OC [Example 5, N-(4-((6,7-dimethoxyquinolin-4-yl)oxy)phenyl)-2-(4-chloro-3-fluorophenyl)acetamide] | 0.001 | – | – | 0.035 | – |
| COc1cc2nccc(Oc3ccc(NC(=O)Cc4cccc(C(F)(F)F)c4)c(Cl)c3)c2cc1OC [Example 6, N-(2-chloro-4-((6,7-dimethoxyquinolin-4-yl)oxy)phenyl)-2-(3-(trifluoromethyl)phenyl)acetamide] | 0.017 | – | – | 0.06 | – |
| COc1cc2nccc(Oc3ccc(NC(=O)Cc4ccc(C(F)(F)F)cc4)c(Cl)c3)c2cc1OC [Example 7, N-(2-chloro-4-((6,7-dimethoxyquinolin-4-yl)oxy)phenyl)-2-(4-(trifluoromethyl)phenyl)acetamide] | 0.009 | – | – | 0.03 | – |
| COc1cc2nccc(Oc3ccc(NC(=O)Cc4cccc(C(F)(F)F)c4)cc3)c2cc1OC [Example 8, N-(4-((6,7-dimethoxyquinolin-4-yl)oxy)phenyl)-2-(3-(trifluoromethyl)phenyl)acetamide] | 0.001 | – | – | 0.006 | – |
| COc1cc2nccc(Oc3ccc(NC(=O)Cc4ccc(C(F)(F)F)cc4)cc3)c2cc1OC [Example 9, N-(4-((6,7-dimethoxyquinolin-4-yl)oxy)phenyl)-2-(4-(trifluoromethyl)phenyl)acetamide] | 0.002 | – | – | 0.007 | – |
| COc1ccc(CC(=O)Nc2ccc(Oc3ccnc4cc(OC)c(OC)cc34)cc2)cc1OC [Example 10, N-(4-((6,7-dimethoxyquinolin-4-yl)oxy)phenyl)-2-(3,4-dimethoxyphenyl)acetamide] | 0.009 | – | – | 0.038 | – |
